How the values were obtained:
S. cerevisiae cells = experiment: Resazurin cytotoxicity assay (mitochondrial activity); format: cell-based; details: for Cell Death (%) / Reduction Percentage (%): 3 h incubation
Description: The resazurin-based model that monitors mitochondrial activity is widely used as an indicator of cell viability, proliferation and cytotoxicity. This method is based on the reduction of resazurin to resorufin by mitochondrial enzymes, as carriers of diaphorase activities, like NADPH-dehydrogenase, which are responsible for the transference of electrons from NADPH^+, H^+ to resazurin. The reduction of resazurin correlates with the number of live bacterial or mammalian cells or fungi. Furthermore, S. cerevisiae is an established model system for eukaryotic organisms. They have conserved cellular processes with high homology to those of humans. They proliferate rapidly and are even used as a model to study the effects of anticancer agents. The use of S. cerevisiae in resazurin redox testing is a good alternative to conventional cell viability testing techniques.
The assay is based on the ability of living cells to reduce blue resazurin (7-hydroxy-3H-phenoxazin-3-one 10-oxide) to pink resorufin (7-hydroxy-3H-phenoxazin-3-one) which is measurable by the UV–Vis spectrophotometric or fluorometric method (AlamarBlue^TM). Living cells have active N-methylphenazinium methosulfate that catalyzes the redox reaction in mitochondria of NADH and blue resazurin to produce pink resorufin (Scheme 2). This test is used as an oxidation–reduction indicator in cell viability assays for yeasts and mammalian cells. Reduction of the dye by viable cells decreases the amount of the oxidized form (blue) and, at the same time, increases the amount of its fluorescent intermediate (pink), indicating the degree of cytotoxicity caused by the test material.
S. cerevisiae cells (CCY 21-4-64; Libáň, Czech Republic) were cultured at 28 °C/24h on Saburaud’s dextrose agar with chloramphenicol (Merck, Boston, MA, USA). Subsequently, after 24 h, S. cerevisiae cells were inoculated into sterile liquid YPD medium (Sigma–Aldrich, St. Louis, MO, USA) and cultivation continued at 28 °C/24 h. In the exponential growth phase, cells were centrifuged (8.000 g/3 min), washed twice with sterile physiological solution (0.9% NaCl) and pipetted at a concentration of 1 × 10^9 cells/mL in sterile microtubes (modified procedure from Bitacura, 2018). Sterile physiological solution and copper complexes at concentrations of 1 × 10^−3 M, 3 × 10^−3 M and 5 × 10^−3 M were added to the centrifuged biomass to a total volume of 1 mL and individual samples were cultured in an incubator at 28 °C/3 h. After 3 h, 0.1 mL of ResazurinOX (in vitro toxicology assay kit based on resazurin, Sigma, USA) was added to each sample and the samples were allowed to culture for 2 h. After incubation, the biomass in the samples was separated from the supernatant by centrifugation (8000 g/5 min). The separated solution was diluted in a ratio of 1:1 with physiological solution and subjected to the measurement of UV spectra by the spectrophotometric method according to the recommended protocol of the kit manufacturer (Sigma, USA) on a GENESYS 10S UV–Vis spectrophotometer (Thermo Scientific, USA) in the range of 500–800 nm, using a 1 cm long cuvette.
Cells’ innate metabolic was measured by using an established formula for the reduction percentage. The reduction percentage was calculated using the following formula:(7) Red(%)=ƐOX_600 nm×A570 nm_sample−ƐOX_570 nm×A600 nm_sample/ƐRED_570 nm×A600 nm_C−−ƐRED_600 nm×A570 nm_C−×100

[1] = target: bovine serum albumin (BSA) (Bos taurus, UniProt P02769); experiment: Bovine serum albumin binding (tryptophan fluorescence quenching); details: for dynamic quenching constant Ksv / quenching constant kq: BSA 3 μM, citrate buffer pH 7.0; for association binding constant KBSA / n (number of binding sites for albumin): Scatchard equation
Procedure: The fluorescence emission spectra of BSA show intense fluorescence emission at 336 nm upon excitation at 280 nm. This is due to the presence of two tryptophan residues (Trp134 and Trp212). Fluorescence quenching data were analyzed to obtain various binding parameters for the interaction of complexes 4a–c with BSA.
The interaction of complexes with serum albumin was characterized by the Stern–Volmer constant Ksv and the quenching constant kq, which was calculated using the Stern–Volmer equation (Figure S4-2) together with the associate binding constant KBSA and the number of binding sites per albumin n determined from the Scatchard equations (Equation (6), Figure S4-3); the values are summarized in Table 6.
The BSA binding of complexes 4a–c was studied by tryptophan fluorescence emission quenching experiments using BSA (3 μM) in citrate buffer solution (containing 15 mM trisodium citrate and 150 mM sodium chloride at pH 7.0). The emission intensity quenching of BSA tryptophan residues at 336 nm was measured by increasing the concentration of the quencher complexes 4a–c. The concentration of the added complexes ranged from 0 to 0.2 mM. The fluorescence emission spectra were recorded in the 300–420 nm range and with an excitation wavelength of 280 nm. The values of the Stern–Volmer constant KSV (in M^−1), the BSA binding constant K (in M^−1) for the compound–BSA interaction and the BSA quenching constant kq (in M^−1 s^−1) have been calculated from the Stern–Volmer (Equations (2)–(4)). and Scatchard equations (Equation (6)):(6) ΔI/Io/[Q]=nK−KΔI/Io
The BSA binding constant K (in M^−1) can be calculated from the slope of the Scatchard plots, and the number of binding sites per albumin (n) is given by the ratio of the y intercept to the slope.

Sequence of bovine serum albumin (BSA) (P02769 25-607): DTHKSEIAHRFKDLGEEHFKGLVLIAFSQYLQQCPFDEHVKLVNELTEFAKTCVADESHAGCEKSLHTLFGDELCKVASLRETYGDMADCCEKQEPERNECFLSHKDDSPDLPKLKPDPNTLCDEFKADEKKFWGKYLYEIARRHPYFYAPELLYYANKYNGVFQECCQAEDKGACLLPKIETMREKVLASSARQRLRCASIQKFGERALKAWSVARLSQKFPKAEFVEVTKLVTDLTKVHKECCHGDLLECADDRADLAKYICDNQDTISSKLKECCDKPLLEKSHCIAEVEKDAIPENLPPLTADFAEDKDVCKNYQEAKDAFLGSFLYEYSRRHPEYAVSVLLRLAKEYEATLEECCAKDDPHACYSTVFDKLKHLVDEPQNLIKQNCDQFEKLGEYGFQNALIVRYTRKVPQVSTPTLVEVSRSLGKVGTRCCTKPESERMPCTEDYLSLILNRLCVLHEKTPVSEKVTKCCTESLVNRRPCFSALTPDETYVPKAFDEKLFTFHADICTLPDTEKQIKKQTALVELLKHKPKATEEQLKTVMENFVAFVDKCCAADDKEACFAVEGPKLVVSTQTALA

Row | Compound | Cell Death (%) (S. cerevisiae cells; complex 1 mM) | Reduction Percentage (%) (S. cerevisiae cells; complex 1 mM) | Cell Death (%) (S. cerevisiae cells; complex 3 mM) | Reduction Percentage (%) (S. cerevisiae cells; complex 3 mM) | Cell Death (%) (S. cerevisiae cells; complex 5 mM) | Reduction Percentage (%) (S. cerevisiae cells; complex 5 mM) | dynamic quenching constant Ksv [1] | quenching constant kq [1] | association binding constant KBSA [1] | n (number of binding sites for albumin) [1] | cytotoxic activity (cell death) (S. cerevisiae cells; over the tested concentrations 1–5 mM)
1 | COc1ccccc1CN=Cc1ccccc1[O-].COc1ccccc1CN=Cc1ccccc1[O-].[Cl-].[Cl-].[Cu+2].[Cu+2] [Complex 4a, [Cu2 (Sal-2-MeOBn)2 Cl2]] | 67.1 | 32.9 | 91.6 | 8.4 | 96.5 | 3.5 | 7.16 (±0.03) M^−1 × 10^4 | 7.16 (±0.03) M^−1s^−1 × 10^12 | 6.66 (±0.30) M^−1 × 10^4 | 1.03 | 
2 | COc1ccc(CN=Cc2ccccc2[O-])cc1.COc1ccc(CN=Cc2ccccc2[O-])cc1.[Cl-].[Cl-].[Cu+2].[Cu+2] [Complex 4c, [Cu2 (Sal-4-MeOBn)2 Cl2]] |  | 5.2 | 91.5 | 8.5 | 97.4 | 2.6 | 4.86 (±0.15) M^−1 × 10^4 | 4.86 (±0.15) M^−1s^−1 × 10^12 | 4.77 (±0.20) M^−1 × 10^4 | 1.16 | above 94%
3 | COc1cccc(CN=Cc2ccccc2[O][Cu][O]c2ccccc2C=NCc2cccc(OC)c2)c1 [Complex 4b, [Cu (Sal-3-MeOBn)2]] | 76.0 | 24.0 | 92.6 | 7.4 | 99.0 | 1.0 | 6.39 (±0.06) M^−1 × 10^4 | 6.39 (±0.06) M^−1s^−1 × 10^12 | 5.37 (±0.25) M^−1 × 10^4 | 0.94 | 
